Assay results as given in patent US12485080B2, “Cosmetic compositions” (Mary Kay Inc., priority 2011, dated 2025).

Columns and labels:
hyaluronic acid = assay: Hyaluronic acid production/secretion in cultured human dermal fibroblasts; type: cell-based; details: compared to an untreated control
Method: In this study, tetradecyl aminobutyroylvalylamino butyric urea trifluoroacetate (SYN-HYCAN™ from Pentapharm/DSM) was replaced with Alpinia galanga leaf extract (HYALUFIX™ GL from BASF). Therefore, the combination of tripeptide-1 (KOLLAREN® from Unipex/Lucas Meyer), Centella asiatica stem cells (CENTELLA ASIATIC STEMS G™ from Ricerche Biotecnologiche), and Alpinia galanga leaf extract (HYALUFIX™ GL from BASF) was tested on skin at various levels in various dermatologically acceptable vehicles. The following includes data concerning these tests. Further, an in vitro assay was performed on Alpinia galanga leaf extract using cultured human dermal fibroblasts.

fibronectin = assay: Secretion of fibronectin; type: cell-based; details: compared to untreated controls
laminin = assay: Secretion of laminin; type: cell-based; details: compared to untreated controls
collagen I = assay: Immunofluorescent staining of cultured human fibroblasts for dermal matrix proteins: collagen I; type: cell-based; details: immunofluorescent antibodies, compared to untreated controls
elastin fibers = assay: Immunofluorescence study of elastin fibers; type: cell-based, human; details: immunofluorescence studies
collagen III = assay: Immunofluorescent staining of cultured human fibroblasts for dermal matrix proteins: collagen III; type: cell-based; details: immunofluorescent antibodies, compared to untreated controls

| Substance | increase in production of hyaluronic acid secretion (hyaluronic acid) | increase in secretion of fibronectin (fibronectin) | increase in secretion of laminin (laminin) | increase in collagen I (collagen I) | increase in elastin fibers (elastin fibers) | increase in collagen III (collagen III) |
| --- | --- | --- | --- | --- | --- | --- |
| Tetradecyl aminobutyroylvalylamino butyric urea trifluoroacetate | 64.2% | – | – | – | – | – |
| Tripeptide-1 | 118% | 105% | 85% | 305% | 15% | 105% |
